#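 Interpolation was linear, between the two tested concentrations surrounding the appropriate level; five concentrations were tested over 48 hours in 96-well plates. The concentration for 50% growth inhibition is given as GI50. TGI: concentration producing complete growth inhibition.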
# What was measured:
# Test in all cases: DTP human tumour cell line panel, 48 h
# HCC-2998 colon = test system: HCC-2998 colon
# MALME-3M melanoma = test system: MALME-3M melanoma
# HCT-15 colon = test system: HCT-15 colon
# K-562 leukemia = test system: K-562 leukemia
# HCT-116 colon = test system: HCT-116 colon
# HL-60(TB) leukemia = test system: HL-60(TB) leukemia
# OVCAR-8 ovarian = test system: OVCAR-8 ovarian
# SF-268 CNS = test system: SF-268 CNS
# EKVX NSCLC = test system: EKVX NSCLC
# NCI-H23 lung = test system: NCI-H23 lung
# HT29 colon = test system: HT29 colon
# ACHN renal = test system: ACHN renal
# MCF7 breast = test system: MCF7 breast
# A549 NSCLC = test system: A549 NSCLC
# OVCAR-3 ovarian = test system: OVCAR-3 ovarian
# OVCAR-4 ovarian = test system: OVCAR-4 ovarian
# SR leukemia = test system: SR leukemia
# SF-295 CNS = test system: SF-295 CNS
# M14 melanoma = test system: M14 melanoma
# T-47D breast = test system: T-47D breast
# SN12C renal = test system: SN12C renal
# 786-0 renal = test system: 786-0 renal
# SK-MEL-5 melanoma = test system: SK-MEL-5 melanoma
# NCI-H226 lung = test system: NCI-H226 lung
# SF-539 CNS = test system: SF-539 CNS
# RXF 393 renal = test system: RXF 393 renal
# TK-10 renal = test system: TK-10 renal
# HS 578T breast = test system: HS 578T breast
# UACC-257 melanoma = test system: UACC-257 melanoma
compound,measurement,setting,value
O=S(=O)(Nc1cccc(Cl)c1)c1ccc(-c2cnc(C3CC3)o2)cc1,GI50,HCC-2998 colon,2870 nM
same,TGI,HCC-2998 colon,17.1 µM
same,GI50,MALME-3M melanoma,10.3 µM
same,TGI,MALME-3M melanoma,32 µM
same,GI50,HCT-15 colon,430 nM
same,TGI,HCT-15 colon,20.3 µM
same,GI50,K-562 leukemia,305 nM
same,TGI,K-562 leukemia,66 µM
same,GI50,HCT-116 colon,480 nM
same,TGI,HCT-116 colon,18.7 µM
same,GI50,HL-60(TB) leukemia,388 nM
same,TGI,HL-60(TB) leukemia,12.3 µM
same,GI50,OVCAR-8 ovarian,1950 nM
same,TGI,OVCAR-8 ovarian,32.9 µM
same,GI50,SF-268 CNS,3.28 µM
same,TGI,SF-268 CNS,25.2 µM
same,GI50,EKVX NSCLC,2880 nM
same,TGI,EKVX NSCLC,40.3 µM
same,GI50,NCI-H23 lung,2140 nM
same,TGI,NCI-H23 lung,20.4 µM
same,GI50,HT29 colon,372 nM
same,TGI,HT29 colon,12.2 µM
same,GI50,ACHN renal,925 nM
same,TGI,ACHN renal,37 µM
same,GI50,MCF7 breast,398 nM
same,TGI,MCF7 breast,51.6 µM
same,GI50,A549 NSCLC,1350 nM
same,TGI,A549 NSCLC,44 µM
same,GI50,OVCAR-3 ovarian,417 nM
same,TGI,OVCAR-3 ovarian,12.3 µM
same,GI50,OVCAR-4 ovarian,2920 nM
same,TGI,OVCAR-4 ovarian,16.7 µM
same,GI50,SR leukemia,409 nM
same,TGI,SR leukemia,32.4 µM
same,GI50,SF-295 CNS,394 nM
same,TGI,SF-295 CNS,12 µM
same,GI50,M14 melanoma,593 nM
same,TGI,M14 melanoma,24.3 µM
same,GI50,T-47D breast,519 nM
same,TGI,T-47D breast,22 µM
same,GI50,SN12C renal,1620 nM
same,TGI,SN12C renal,20.9 µM
same,GI50,786-0 renal,3.9 µM
same,TGI,786-0 renal,34.8 µM
same,GI50,SK-MEL-5 melanoma,2010 nM
same,TGI,SK-MEL-5 melanoma,14.4 µM
same,GI50,NCI-H226 lung,1900 nM
same,TGI,NCI-H226 lung,17.2 µM
same,GI50,SF-539 CNS,683 nM
same,TGI,SF-539 CNS,11.8 µM
same,GI50,RXF 393 renal,835 nM
same,TGI,RXF 393 renal,10.9 µM
same,GI50,TK-10 renal,5.11 µM
same,TGI,TK-10 renal,26.5 µM
same,GI50,HS 578T breast,679 nM
same,TGI,HS 578T breast,16.6 µM
same,GI50,UACC-257 melanoma,6.98 µM
